{
  "source": "patent US20130230587A1",
  "about": "“SUSTAINED RELEASE COMPOSITIONS” (Rubicon Research Private Limited, priority 2010, published 2013)",
  "origin": "cited, not measured here",
  "data": [
    {"smiles": "COc1ccc2c(c1)[C@]13CCCC[C@@H]1[C@H](C2)N(C)CC3", "note": "[Dextromethorphan]", "values": [
      {"measurement": "Time to peak plasma concentrations", "setting": "absorbed from the gastrointestinal tract", "result": "approximately 2.5 hours"},
      {"measurement": "Plasma elimination half-life", "setting": "in vivo", "result": "1.2 to 3.9", "unit": "h"}
    ]}
  ]
}
